{"source": "ChEMBL document CHEMBL5543162", "about": "“Discovery of a Novel Orally Bioavailable FLT3-PROTAC Degrader for Efficient Treatment of Acute Myeloid Leukemia and Overcoming Resistance of FLT3 Inhibitors” (J Med Chem, 2024)", "key": {"[1]": {"test": "Toxicity in nu/nu mouse xenografted with human MV4-11 cells assessed as damage in lung at 1.25 to 10 mg/kg, po administered daily for 2 weeks by H and E staining based analysis", "format": "organism-based", "conditions": "in vivo, 336 h, dose 1.25-10 mg/kg"}, "[2]": {"test_system": "MV4-11", "test": "Induction of cell cycle arrest at G1 phase in human MV4-11 cells at 50 nM incubated for 24 hrs by PI/RNase staining based flow cytometry relative to control", "format": "functional"}, "[3]": {"test": "Antiproliferative activity against mouse Ba/F3 FLT3-ITD cells incubated for 48 hrs by CCK8 assay", "format": "functional, cell-based"}, "[4]": {"molecular_target": "CYP3A4/CYP3A5 (Homo sapiens, UniProt P08684+P20815)", "test": "Inhibition of CYP3A4/CYP3A5 (unknown origin) using testosterone as substrate", "format": "ADME, protein assay", "conditions": "probe testosterone"}, "[5]": {"test": "Stability in monkey liver microsomes assessed as hepatic clearance", "format": "ADME, Microsome", "conditions": "chlorocebus aethiops"}, "[6]": {"test": "AUC (0 to t) in Sprague-Dawley rat at 1 mg/kg, iv measured for 24 hrs by LC-MS/MS analysis", "format": "ADME, organism-based", "conditions": "in vivo"}, "[7]": {"test_system": "Protein cereblon/Receptor-type tyrosine-protein kinase FLT3 (Homo sapiens), P36888+Q96SW2 [UNDEFINED MUTATION]", "sequence (P36888 whole entry, looked up, stated change not applied)": "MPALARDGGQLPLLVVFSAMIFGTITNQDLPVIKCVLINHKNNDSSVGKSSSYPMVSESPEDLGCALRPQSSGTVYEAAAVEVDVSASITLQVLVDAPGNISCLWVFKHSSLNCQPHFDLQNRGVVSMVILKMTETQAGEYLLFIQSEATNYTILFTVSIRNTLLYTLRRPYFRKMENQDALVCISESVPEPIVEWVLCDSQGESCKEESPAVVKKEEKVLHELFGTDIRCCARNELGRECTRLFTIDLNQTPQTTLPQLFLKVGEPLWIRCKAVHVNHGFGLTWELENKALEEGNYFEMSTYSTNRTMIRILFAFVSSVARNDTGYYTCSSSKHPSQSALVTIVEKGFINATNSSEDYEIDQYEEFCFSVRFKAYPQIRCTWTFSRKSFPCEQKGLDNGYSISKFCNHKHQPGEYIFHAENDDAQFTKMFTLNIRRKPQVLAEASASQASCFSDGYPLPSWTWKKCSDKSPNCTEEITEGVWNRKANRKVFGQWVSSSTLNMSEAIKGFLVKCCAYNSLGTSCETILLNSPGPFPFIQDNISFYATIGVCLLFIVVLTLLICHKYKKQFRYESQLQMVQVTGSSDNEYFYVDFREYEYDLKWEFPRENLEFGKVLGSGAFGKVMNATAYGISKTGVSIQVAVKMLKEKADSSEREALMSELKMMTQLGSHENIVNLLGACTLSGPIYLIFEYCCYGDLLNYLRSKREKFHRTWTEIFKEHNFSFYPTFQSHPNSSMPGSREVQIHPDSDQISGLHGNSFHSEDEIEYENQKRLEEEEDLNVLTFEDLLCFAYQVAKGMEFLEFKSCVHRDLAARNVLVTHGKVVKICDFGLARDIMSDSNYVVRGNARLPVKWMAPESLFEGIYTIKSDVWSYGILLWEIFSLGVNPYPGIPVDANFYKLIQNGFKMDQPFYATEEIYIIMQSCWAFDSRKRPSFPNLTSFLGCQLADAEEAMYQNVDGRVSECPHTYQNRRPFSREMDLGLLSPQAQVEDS", "sequence (Q96SW2 whole entry, looked up, stated change not applied)": "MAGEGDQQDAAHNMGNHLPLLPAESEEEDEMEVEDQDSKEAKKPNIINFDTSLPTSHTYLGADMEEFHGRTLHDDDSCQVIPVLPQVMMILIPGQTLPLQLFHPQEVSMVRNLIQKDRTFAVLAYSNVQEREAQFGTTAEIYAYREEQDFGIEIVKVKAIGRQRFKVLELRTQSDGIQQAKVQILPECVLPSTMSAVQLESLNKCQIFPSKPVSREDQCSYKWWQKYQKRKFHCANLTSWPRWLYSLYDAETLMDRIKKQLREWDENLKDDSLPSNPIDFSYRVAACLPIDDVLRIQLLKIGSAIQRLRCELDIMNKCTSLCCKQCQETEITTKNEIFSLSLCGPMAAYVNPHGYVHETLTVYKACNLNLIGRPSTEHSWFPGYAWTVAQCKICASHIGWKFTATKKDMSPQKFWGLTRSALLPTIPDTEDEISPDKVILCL", "test": "PROTAC activity at CRBN/FLT3-ITD mutant in human MOLM-13 cells assessed as protein degradation at 20 nM by Western blot analysis", "format": "cell-based", "conditions": "time <= 12.0 hrs, TDE = time-dependent effect"}, "[8]": {"test": "Volume of distribution at steady state in Sprague-Dawley rat at 10 mg/kg, po measured for 24 hrs by LC-MS/MS analysis", "format": "ADME, organism-based", "conditions": "in vivo"}, "[9]": {"molecular_target": "Protein cereblon/Receptor-type tyrosine-protein kinase FLT3 (Homo sapiens, UniProt P36888+Q96SW2)", "sequence (P36888 whole entry, looked up, change not shown)": "as the sequence (P36888 whole entry, looked up, stated change not applied) above", "sequence (Q96SW2 whole entry, looked up, change not shown)": "as the sequence (Q96SW2 whole entry, looked up, stated change not applied) above", "test": "PROTAC activity at CRBN/FLT3-ITD mutant in human MOLM-13 cells assessed as protein degradation by Western blot analysis", "format": "cell-based"}, "[10]": {"test_system": "MV4-11", "test": "Antitumor activity against human MV4-11 cells expressing luciferase xenografted in NSG mouse assessed as decrease in leukemic burden at 2.5 to 10 mg/kg, po administered daily for 3 weeks by bioluminescence imaging", "format": "functional, organism-based", "conditions": "dose 2.5-10 mg/kg"}, "[11]": {"molecular_target": "T1, Cytochrome P450 1A2 (Homo sapiens, UniProt P05177)", "T1 sequence (P05177 whole entry)": "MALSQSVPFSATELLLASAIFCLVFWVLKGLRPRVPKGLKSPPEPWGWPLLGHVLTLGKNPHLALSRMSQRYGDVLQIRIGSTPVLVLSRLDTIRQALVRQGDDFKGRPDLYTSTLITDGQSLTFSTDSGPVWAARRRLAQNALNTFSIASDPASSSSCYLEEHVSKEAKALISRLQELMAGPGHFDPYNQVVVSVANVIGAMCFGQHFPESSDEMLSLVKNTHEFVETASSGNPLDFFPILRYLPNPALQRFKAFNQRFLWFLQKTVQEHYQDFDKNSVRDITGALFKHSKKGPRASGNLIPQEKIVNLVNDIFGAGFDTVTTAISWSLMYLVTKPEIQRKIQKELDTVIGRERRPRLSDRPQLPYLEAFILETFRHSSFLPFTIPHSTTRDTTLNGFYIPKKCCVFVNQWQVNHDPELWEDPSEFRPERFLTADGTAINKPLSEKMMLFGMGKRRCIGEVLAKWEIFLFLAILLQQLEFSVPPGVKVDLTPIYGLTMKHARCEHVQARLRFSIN", "test": "Inhibition of CYP1A2 (unknown origin)", "format": "ADME"}, "[12]": {"test_system": "Protein cereblon/Receptor-type tyrosine-protein kinase FLT3 (Homo sapiens), P36888+Q96SW2 [UNDEFINED MUTATION]", "test": "PROTAC activity at CRBN/FLT3-ITD mutant in human MV4-11 cells assessed as protein degradation at 100 nM incubated for 24 hrs by Western blot analysis", "format": "cell-based"}, "[13]": {"test": "Half life in Sprague-Dawley rat at 10 mg/kg, po measured for 24 hrs by LC-MS/MS analysis", "format": "ADME, organism-based", "conditions": "in vivo"}, "[14]": {"test_system": "MOLM-13", "test": "Antiproliferative activity against Sunitinib-resistant human MOLM-13 cells incubated for 48 hrs by CCK8 assay", "format": "functional, cell-based", "conditions": "MOLM-13, 48 h"}, "[15]": {"test": "Stability in Sprague-Dawley rat intestinal fluid at 50 ug/ml incubated upto 8 hrs by LC-MS/MS analysis", "format": "ADME, tissue-based, Intestine", "conditions": "simulated gi fluid, at 50 µg/mL"}, "[16]": {"test_system": "MV4-11", "test": "Antitumor activity against human MV4-11 cells xenografted with nude mouse assessed as decrease in tumor growth at 120 mg/kg, po administered daily measured after 3 days", "format": "functional, organism-based", "conditions": "time 3.0 day"}, "[17]": {"test": "Antiproliferative activity against human U-937 cells expressing wild-type FLT3 incubated for 48 hrs by CCK8 assay", "format": "toxicity, cell-based"}, "[18]": {"molecular_target": "Cytochrome P450 2C9 (Homo sapiens, UniProt P11712)", "sequence (P11712 whole entry)": "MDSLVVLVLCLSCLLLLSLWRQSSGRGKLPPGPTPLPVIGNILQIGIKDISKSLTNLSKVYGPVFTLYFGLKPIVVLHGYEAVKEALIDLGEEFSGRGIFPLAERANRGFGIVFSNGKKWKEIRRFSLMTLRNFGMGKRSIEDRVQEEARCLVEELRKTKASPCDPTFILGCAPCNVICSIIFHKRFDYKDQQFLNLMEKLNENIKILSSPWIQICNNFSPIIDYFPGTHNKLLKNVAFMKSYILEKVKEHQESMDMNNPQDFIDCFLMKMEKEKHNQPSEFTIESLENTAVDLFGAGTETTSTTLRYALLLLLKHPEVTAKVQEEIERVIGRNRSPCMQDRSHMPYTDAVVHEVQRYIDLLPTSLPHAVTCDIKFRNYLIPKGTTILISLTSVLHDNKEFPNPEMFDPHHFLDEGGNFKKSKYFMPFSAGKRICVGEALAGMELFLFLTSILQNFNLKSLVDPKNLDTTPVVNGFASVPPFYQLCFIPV", "test": "Inhibition of CYP2C9 (unknown origin)", "format": "ADME"}, "[19]": {"test_system": "Protein cereblon/Receptor-type tyrosine-protein kinase FLT3 (Homo sapiens), P36888+Q96SW2 [UNDEFINED MUTATION]", "test": "PROTAC activity at CRBN/FLT3-ITD in human MV4-11 cells assessed as protein degradation by TMT-based global proteomic profiling analysis", "format": "cell-based"}, "[20]": {"test": "AUC (0 to t) in Sprague-Dawley rat at 10 mg/kg, po measured for 24 hrs by LC-MS/MS analysis", "format": "ADME, organism-based", "conditions": "in vivo"}, "[21]": {"test": "Stability in rat liver microsomes assessed as intrinsic clearance", "format": "ADME, Microsome", "conditions": "read-out: CLH"}, "[22]": {"test_system": "MOLM-13", "test": "Antiproliferative activity against Quizartinib-resistant human MOLM-13 cells incubated for 48 hrs by CCK8 assay", "format": "functional, cell-based", "conditions": "MOLM-13, 48 h"}, "[23]": {"test": "Cmax in Sprague-Dawley rat at 10 mg/kg, po measured for 24 hrs by LC-MS/MS analysis", "format": "ADME, organism-based", "conditions": "in vivo"}, "[24]": {"test_system": "Protein cereblon/Receptor-type tyrosine-protein kinase FLT3 (Homo sapiens), P36888+Q96SW2 [UNDEFINED MUTATION]", "test": "PROTAC activity at CRBN/FLT3-ITD mutant in human MV4-11 cells assessed as decrease in S6K level incubated for 12 hrs by Western blot analysis", "format": "cell-based", "conditions": "dose <= 20.0 nM"}, "[25]": {"test_system": "Protein cereblon/Receptor-type tyrosine-protein kinase FLT3 (Homo sapiens), P36888+Q96SW2 [UNDEFINED MUTATION]", "test": "PROTAC activity at CRBN/FLT3-ITD mutant in human MV4-11 cells assessed as decrease in ERK level at 20 nM by Western blot analysis", "format": "cell-based", "conditions": "time <= 12.0 hrs, TDE = time-dependent effect"}, "[26]": {"test_system": "Protein cereblon/Receptor-type tyrosine-protein kinase FLT3 (Homo sapiens), P36888+Q96SW2 [UNDEFINED MUTATION]", "test": "PROTAC activity at CRBN/FLT3-ITD mutant in human MV4-11 cells assessed as decrease in ERK level incubated for 12 hrs by Western blot analysis", "format": "cell-based", "conditions": "dose <= 20.0 nM"}, "[27]": {"molecular_target": "Cytochrome P450 2D6 (Homo sapiens, UniProt P10635)", "sequence (P10635 whole entry)": "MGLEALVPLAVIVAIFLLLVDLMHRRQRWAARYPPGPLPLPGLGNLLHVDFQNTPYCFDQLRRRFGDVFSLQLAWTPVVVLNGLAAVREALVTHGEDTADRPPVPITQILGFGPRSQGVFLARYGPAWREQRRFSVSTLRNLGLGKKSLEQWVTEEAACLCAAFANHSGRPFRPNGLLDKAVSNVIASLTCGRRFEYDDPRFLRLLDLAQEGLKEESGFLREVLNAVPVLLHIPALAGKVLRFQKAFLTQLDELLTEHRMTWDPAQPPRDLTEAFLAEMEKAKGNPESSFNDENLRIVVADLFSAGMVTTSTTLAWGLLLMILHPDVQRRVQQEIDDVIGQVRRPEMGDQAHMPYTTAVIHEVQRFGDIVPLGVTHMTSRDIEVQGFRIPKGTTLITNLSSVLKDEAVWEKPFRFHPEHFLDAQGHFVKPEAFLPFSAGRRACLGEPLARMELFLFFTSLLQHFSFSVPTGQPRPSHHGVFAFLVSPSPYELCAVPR", "test": "Inhibition of CYP2D6 (unknown origin)", "format": "ADME"}, "[28]": {"test": "Stability in dog liver microsomes assessed as intrinsic clearance", "format": "ADME, Canis lupus familiaris, Microsome", "conditions": "read-out: CLH"}, "[29]": {"test": "Stability in mouse liver microsomes assessed as hepatic clearance", "format": "ADME, Microsome"}, "[30]": {"test": "Stability in human liver microsomes assessed as hepatic clearance", "format": "ADME, Microsome"}, "[31]": {"test": "Half life in Sprague-Dawley rat at 1 mg/kg, iv measured for 24 hrs by LC-MS/MS analysis", "format": "ADME, organism-based", "conditions": "in vivo"}, "[32]": {"test": "Stability in Sprague-Dawley rat plasma at 50 ug/ml incubated upto 8 hrs by LC-MS/MS analysis", "format": "ADME, cell-free", "conditions": "at 50 µg/mL"}, "[33]": {"test": "Stability in dog liver microsomes assessed as hepatic clearance", "format": "ADME, Canis lupus familiaris, Microsome"}, "[34]": {"test_system": "MOLM-13", "test": "Induction of apoptosis in human MOLM-13 cells incubated for 24 hrs by Annexin V-FITC/PI staining based flow cytometry", "format": "functional, cell-based", "conditions": "dose 25-100 nM"}, "[35]": {"test": "Toxicity in NSG mouse xenografted with human MV4-11 cells expressing luciferase assessed as obvious adverse response at 1.25 to 10 mg/kg, po administered daily for 3 weeks", "format": "organism-based", "conditions": "in vivo, 504 h, dose 1.25-10 mg/kg"}}, "note": "The source made the active and inactive calls. No cut-off for these calls is given here.", "data": [{"molecule": "Cc1c(NC(=O)CN2CCN(CC3CCN(c4ccc5c(c4)C(=O)N(C4CCC(=O)NC4=O)C5=O)CC3)CC2)c[nH]c1/C=C1\\C(=O)Nc2ccc(F)cc21", "note": "(stereo not given)", "values": [{"measurement": "Activity", "setting": "[1]", "result": "Non-Toxic"}, {"measurement": "Activity", "setting": "[2]", "result": 89.2, "unit": "%"}, {"measurement": "IC50", "setting": "[3]", "result": 17, "unit": "nM"}, {"measurement": "IC50", "setting": "[4]", "result": "> 50000", "unit": "nM"}, {"measurement": "CLhep predicted", "setting": "[5]", "result": 23.4, "unit": "mL/min/kg"}, {"measurement": "AUC(0-t) at 24 h", "setting": "[6]", "result": 2770, "unit": "ng·h/mL"}, {"measurement": "Activity", "setting": "[7]", "result": "Tde"}, {"measurement": "Vdss", "setting": "[8]", "result": 5.7, "unit": "L/kg"}, {"measurement": "DC50", "setting": "[9]", "result": 20.1, "unit": "nM"}, {"measurement": "Activity", "setting": "[10]", "result": "Active"}, {"measurement": "IC50", "setting": "[11]", "result": "> 50000", "unit": "nM"}, {"measurement": "Activity", "setting": "[12]", "result": "Active"}, {"measurement": "half-life", "setting": "[13]", "result": 3.8, "unit": "h"}, {"measurement": "IC50", "setting": "[14]", "result": 147, "unit": "nM"}, {"measurement": "Stability", "setting": "[15]", "result": "Stable"}, {"measurement": "Activity", "setting": "[16]", "result": "Active"}, {"measurement": "IC50 at 48 h", "setting": "[17]", "result": "> 40000", "unit": "nM"}, {"measurement": "IC50", "setting": "[18]", "result": "> 50000", "unit": "nM"}, {"measurement": "Activity", "setting": "[19]", "result": "Active"}, {"measurement": "AUC(0-t) at 24 h", "setting": "[20]", "result": 14700, "unit": "ng·h/mL"}, {"measurement": "CLint scaled", "setting": "[21]", "result": 27, "unit": "mL/min/kg"}, {"measurement": "IC50", "setting": "[22]", "result": 484, "unit": "nM"}, {"measurement": "Cmax", "setting": "[23]", "result": 1120, "unit": "ng/mL"}, {"measurement": "Activity", "setting": "[24]", "result": "Dose-Dependent Effect"}, {"measurement": "Activity", "setting": "[25]", "result": "Tde"}, {"measurement": "Activity", "setting": "[26]", "result": "Dose-Dependent Effect"}, {"measurement": "IC50", "setting": "[27]", "result": "> 50000", "unit": "nM"}, {"measurement": "CLint scaled", "setting": "[28]", "result": 17.7, "unit": "mL/min/kg"}, {"measurement": "CLhep predicted", "setting": "[29]", "result": 45.7, "unit": "mL/min/kg"}, {"measurement": "CLhep predicted", "setting": "[30]", "result": 10.9, "unit": "mL/min/kg"}, {"measurement": "half-life", "setting": "[31]", "result": 6.5, "unit": "h"}, {"measurement": "Stability", "setting": "[32]", "result": "Stable"}, {"measurement": "CLhep predicted", "setting": "[33]", "result": 11.3, "unit": "mL/min/kg"}, {"measurement": "Activity", "setting": "[34]", "result": "Dose-Dependent Effect"}, {"measurement": "Activity", "setting": "[35]", "result": "Non-Toxic"}]}]}
